Data set [1] is described as follows: Therapeutic index (ratio between upper/lower bounds of therapeutic window). In kind it is in vivo. The method, then: In various example embodiments, dosing is determined using some or all the steps of method 300 for medicaments listed in the following tables. For each medicament listed, a concentration window W or therapeutic index is listed in a third column. The therapeutic index (TI, also referred to as therapeutic ratio) is a quantitative measurement of the relative safety of a drug. It is a comparison of the amount of a therapeutic agent that causes the therapeutic effect to the amount that causes toxicity. As proposed herein, a cost function g(y) is based, at least in part, on a value in this third column. The Koopman Expectation is used in Equation 11 or Equation 12 with a quadrature procedure to deduce an optimum range or subset of the dosing range listed in the second column.

For data set [2] the following is noted: cited from earlier work; for Concentration range: Table 1 anti-epileptics, * uncertain reference range, ** well defined toxic range.
The conditions of data set [3]: Table 1 anti-epileptics; printed in place of a dose range; cited from earlier work.

Molecules are shown by their SMILES. Like-named read-outs stand apart in the source and are kept apart here.

Regarding `NC(=O)N1c2ccccc2C=Cc2ccccc21` [Carbamazepine], the Therapeutic index in data set [1] (Table 7 antiepileptics) is on record as 3. The Therapeutic window in data set [2] (Table 7 antiepileptics) is 4 to 12 mg/L. With `CN1C(=O)CC(=O)N(c2ccccc2)c2cc(Cl)ccc21` [Clobazam], the Concentration range result in data set [2] was “(0.03-0.3 mg/L)”.

Regarding `CCCC(CCC)C(=O)O` [Valproic acid], in data set [1] (Table 7 antiepileptics), the Therapeutic index is 2. Moreover, the “Dose range: PK note” value in data set [3] was “(non-linear PK)”. For the same compound, in data set [2], the Concentration range entry is on record as “(50-100 mg/L)”. Moreover, in data set [2] (Table 7 antiepileptics), the Therapeutic window is 50 to 100 mg/L. For `CO[C@H]1C[C@@H]2CC[C@@H](C)[C@@](O)(O2)C(=O)C(=O)N2CCCC[C@H]2C(=O)O[C@H]([C@H](C)C[C@@H]2CC[C@@H](O)[C@H](OC)C2)CC(=O)[C@H](C)/C=C(\C)[C@@H](O)[C@@H](OC)C(=O)[C@H](C)C[C@H](C)/C=C/C=C/C=C/1C` [Sirolimus], the “Small change in concentration may lead to failure/serious AE (concentration range)” value in data set [2] (Table 4 immunosuppressants) is given as “(12-20 ng/mL)”.

For `O=C1NC(=O)C(c2ccccc2)(c2ccccc2)N1` [Phenytoin], the Therapeutic index in data set [1] (Table 7 antiepileptics) amounted to 2. The “Dose range: PK note” value in data set [3] is given as “(non-linear PK)”. In addition, in data set [2], the Concentration range entry is reported as “(10-20 mg/L)”. Also, the Therapeutic window in data set [2] (Table 7 antiepileptics) is 10 to 20 mg/L.

As for `O=C1CN=C(c2ccccc2Cl)c2cc([N+](=O)[O-])ccc2N1` [Clonazepam], in data set [2], the Concentration range entry is given as “(0.02-0.07 mg/L)”. In the case of `COc1c(C)c2c(c(O)c1C/C=C(\C)CCC(=O)O)C(=O)OC2` [Mycophenolate], the “Small change in concentration may lead to failure/serious AE (exposure range)” value in data set [2] (Table 4 immunosuppressants, not in label) is reported as “(30-60 mg*h/L”. In the case of `CO[C@H]1C[C@@H]2CC[C@@H](C)[C@@](O)(O2)C(=O)C(=O)N2CCCC[C@H]2C(=O)O[C@H]([C@H](C)C[C@@H]2CC[C@@H](OCCO)[C@H](OC)C2)CC(=O)[C@H](C)/C=C(\C)[C@@H](O)[C@@H](OC)C(=O)[C@H](C)C[C@H](C)/C=C/C=C/C=C/1C` [Everolimus], in data set [2] (Table 4 immunosuppressants), the “Small change in concentration may lead to failure/serious AE (concentration range)” value was “(3-8 ng/mL)”. As for `C[C@H]1O[C@@H](O[C@H]2[C@@H](O)C[C@H](O[C@H]3[C@@H](O)C[C@H](O[C@H]4CC[C@@]5(C)[C@H](CC[C@@H]6[C@@H]5C[C@@H](O)[C@]5(C)[C@@H](C7=CC(=O)OC7)CC[C@]65O)C4)O[C@@H]3C)O[C@@H]2C)C[C@H](O)[C@@H]1O` [Digoxin], the Concentration/biomarker range entry in data set [2] (Table 3 antiarrhythmics, AF) was “(0.8-2: AF”; in data set [2] (Table 3 antiarrhythmics, Cl) it was 0.5-1: Cl). Take `[H]/N=C(/N)c1ccc(NCc2nc3cc(C(=O)N(CCC(=O)O)c4ccccn4)ccc3n2C)cc1` [Dabigatran]: the Therapeutic index in data set [1] (Table 5 anticoagulants) came out at 1.7. The Concentration/biomarker range entry in data set [2] (Table 2 anticoagulants) is “(60-200 mg/L or”. As to `Nc1nnc(-c2cccc(Cl)c2Cl)c(N)n1` [Lamotrigine], the Therapeutic index in data set [1] (Table 7 antiepileptics) is listed as 4.7. The Concentration range entry in data set [2] is reported as “(3-14 mg/L)”. Besides, the Therapeutic window in data set [2] (Table 7 antiepileptics) is 3 to 14 mg/L. As to `C=C[C@H]1C[N@@]2CC[C@H]1C[C@@H]2[C@@H](O)c1ccnc2ccc(OC)cc12` [Quinidine], in data set [1] (Table 6 antiarrhythmics), the Therapeutic index was 2.5. In data set [2] (Table 3 antiarrhythmics), the Concentration/biomarker range entry is recorded as “(2-5 mg/L)”. In data set [2] (Table 6 antiarrhythmics), the Therapeutic window was 2 to 5 mg/L. `C=CC(N)CCC(=O)O` (stereo not shown) [Vigabatrin]: the Concentration range result in data set [2] is reported as “(0.8-36 mg/L)”. As for `NC(=O)OCC(COC(N)=O)c1ccccc1` [Felbamate], the Therapeutic index in data set [1] (Table 7 antiepileptics) turned out to be 2. For the same compound, the Concentration range result in data set [2] is reported as “(30-60 mg/L)*”. The Therapeutic window in data set [2] (Table 7 antiepileptics) is 30 to 60 mg/L. On to `C=CC[C@@H]1/C=C(\C)C[C@H](C)C[C@H](OC)[C@H]2O[C@@](O)(C(=O)C(=O)N3CCCC[C@H]3C(=O)O[C@H](/C(C)=C/[C@@H]3CC[C@@H](O)[C@H](OC)C3)[C@H](C)[C@@H](O)CC1=O)[C@H](C)C[C@@H]2OC` [Tacrolimus], for which the “Small change in concentration may lead to failure/serious AE (concentration range)” value in data set [2] (Table 4 immunosuppressants) is on record as “(5-15 ng/mL)”.

Take `CC1(C)O[C@@H]2[C@@H](CO[C@@]3(COS(N)(=O)=O)OC(C)(C)O[C@@H]23)O1` [Topiramate]: the Therapeutic index in data set [1] (Table 7 antiepileptics) turned out to be 4. Also, the Concentration range result in data set [2] was “(5-20 mg/L)”. For the same compound, in data set [2] (Table 7 antiepileptics), the Therapeutic window is 5 to 20 mg/L. With `NCC1(CC(=O)O)CCCCC1` [Gabapentin], the Concentration range entry in data set [2] was “(2-20 mg/L)”. In the case of `NS(=O)(=O)Cc1noc2ccccc12` [Zonisamide], in data set [1] (Table 7 antiepileptics), the Therapeutic index stood at 4. In addition, the Concentration range entry in data set [2] is recorded as “(10-40 mg/L)**”. For the same compound, in data set [2] (Table 7 antiepileptics), the Therapeutic window was 10 to 40 mg/L. In the case of `CCC1(c2ccccc2)C(=O)NCNC1=O` [Primidone], the Concentration range result in data set [2] was “(5-10 mg/L)”. In the case of `CC(=O)CC(c1ccccc1)c1c(O)c2ccccc2oc1=O` (stereo not shown) [Warfarin], in data set [1] (Table 5 anticoagulants), the Therapeutic index was determined as 1.5.

As for `CCC1(C)CC(=O)NC1=O` (stereo not shown) [Ethosuximide], the Concentration range result in data set [2] is listed as “(40-100 mg/L)”. Regarding `CC1CNc2c(cccc2S(=O)(=O)N[C@@H](CCCNC(=N)N)C(=O)N2CC[C@@H](C)C[C@@H]2C(=O)O)C1` (stereo partly shown) [Argatroban], the Therapeutic index in data set [1] (Table 5 anticoagulants) turned out to be 1.7. On to `CCC1(c2ccccc2)C(=O)NC(=O)NC1=O` [Phenobarbital], for which, in data set [2], the Concentration range entry was “(10-40 mg/L)”. For `CC[C@@H](C(N)=O)N1CCCC1=O` [Levetiracetam], the Concentration range entry in data set [2] is listed as “(12-46 mg/L)”.

For the compound `Cc1ccsc1C(=CCCN1CCC[C@@H](C(=O)O)C1)c1sccc1C` [Tiagabine], the Therapeutic index in data set [1] (Table 7 antiepileptics) worked out at 10. For the same compound, the Concentration range result in data set [2] was “(0.02-0.2 mg/L)*”. For the same compound, in data set [2] (Table 7 antiepileptics), the Therapeutic window is 0.02 to 0.2 mg/L.

The values are drawn from patent publication US20220375563A1, “METHOD AND APPARATUS FOR INDIVIDUALIZED ADMINISTRATION OF MEDICAMENTS FOR ENHANCED SAFE DELIVERY WITHIN A THERAPEUTIC RANGE” (UNIVERSITY OF MARYLAND, BALTIMORE, priority 2019, published 2022).
